Data reported in ChEMBL document CHEMBL1909046, “DrugMatrix in vitro pharmacology data”.

Assays:
[1] = DRUGMATRIX: Sodium/nucleoside co-transporter radioligand binding (ligand: nitrobenzylthioinosine); format: cell membranes, Cavia porcellus, Dunkin-Hartley, Cerebral cortex, Membrane; conditions: Not Active = under 50% inhibition at 10 µM
[2] = target: Beta-2 adrenergic receptor (Homo sapiens, UniProt P07550); assay: DRUGMATRIX: Adrenergic beta2 radioligand binding (ligand: [3H] CGP-12177); format: cell membranes, Membrane; conditions: cho; Not Active = under 50% inhibition at 10 µM
Beta-2 adrenergic receptor, sequence (P07550 whole entry): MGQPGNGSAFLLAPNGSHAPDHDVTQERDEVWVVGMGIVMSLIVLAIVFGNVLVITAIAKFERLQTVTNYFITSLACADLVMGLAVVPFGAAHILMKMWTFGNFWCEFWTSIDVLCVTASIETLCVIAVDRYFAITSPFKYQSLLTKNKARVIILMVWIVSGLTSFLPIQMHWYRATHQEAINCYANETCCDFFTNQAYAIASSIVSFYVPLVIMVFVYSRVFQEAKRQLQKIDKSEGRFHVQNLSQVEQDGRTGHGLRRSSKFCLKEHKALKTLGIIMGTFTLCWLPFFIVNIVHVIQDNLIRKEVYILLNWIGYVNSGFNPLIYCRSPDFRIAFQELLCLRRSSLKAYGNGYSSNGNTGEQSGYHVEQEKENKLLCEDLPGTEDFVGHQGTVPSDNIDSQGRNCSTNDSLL

[3] = target: Sodium-dependent noradrenaline transporter (Homo sapiens, UniProt P23975); assay: DRUGMATRIX: Norepinephrine Transporter radioligand binding (ligand: [125I] RTI-55); format: cell membranes, MDCK, Membrane; conditions: mdck; Not Active = under 50% inhibition at 10 µM
Sodium-dependent noradrenaline transporter, sequence (P23975 whole entry): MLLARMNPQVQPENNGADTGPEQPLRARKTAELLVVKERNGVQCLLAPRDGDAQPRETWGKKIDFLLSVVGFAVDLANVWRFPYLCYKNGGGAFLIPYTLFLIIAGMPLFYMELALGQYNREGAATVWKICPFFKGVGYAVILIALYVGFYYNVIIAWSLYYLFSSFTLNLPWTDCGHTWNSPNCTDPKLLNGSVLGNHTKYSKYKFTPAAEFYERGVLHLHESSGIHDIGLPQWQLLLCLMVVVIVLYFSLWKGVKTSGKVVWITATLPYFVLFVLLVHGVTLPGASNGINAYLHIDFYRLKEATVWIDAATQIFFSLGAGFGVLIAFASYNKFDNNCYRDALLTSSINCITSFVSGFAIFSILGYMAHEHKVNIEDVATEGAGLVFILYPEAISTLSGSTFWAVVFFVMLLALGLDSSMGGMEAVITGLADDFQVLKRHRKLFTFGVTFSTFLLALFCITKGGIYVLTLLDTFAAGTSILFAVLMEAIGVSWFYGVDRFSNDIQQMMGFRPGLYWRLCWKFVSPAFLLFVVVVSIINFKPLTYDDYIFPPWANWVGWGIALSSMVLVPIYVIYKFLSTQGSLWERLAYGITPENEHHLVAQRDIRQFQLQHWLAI

[4] = DRUGMATRIX: Interleukin IL-1 radioligand binding (ligand: [125I] interleukin 1beta); format: cell membranes, Membrane; conditions: nih3t3; Not Active = under 50% inhibition at 10 µM
Melanocortin receptor 4 = Melanocortin receptor 4 (Homo sapiens, UniProt P32245); format: cell membranes, Membrane; conditions: hek293; also: in other assays of this panel Not Active means under 50% inhibition at 10 µM
Melanocortin receptor 4, sequence (P32245 whole entry): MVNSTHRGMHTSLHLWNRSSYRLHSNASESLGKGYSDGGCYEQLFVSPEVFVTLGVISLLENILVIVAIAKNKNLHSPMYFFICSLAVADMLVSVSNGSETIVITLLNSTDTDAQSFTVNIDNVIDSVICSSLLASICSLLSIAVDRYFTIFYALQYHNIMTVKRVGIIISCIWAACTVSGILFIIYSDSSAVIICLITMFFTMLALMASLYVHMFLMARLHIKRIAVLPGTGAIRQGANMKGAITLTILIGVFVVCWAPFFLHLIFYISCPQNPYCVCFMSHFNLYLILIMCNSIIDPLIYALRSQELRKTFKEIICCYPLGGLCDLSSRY

Melanocortin receptor 5 = Melanocortin receptor 5 (Homo sapiens, UniProt P33032); format: cell membranes, HEK293, Membrane; conditions: hek293; also: in other assays of this panel Not Active means under 50% inhibition at 10 µM
Melanocortin receptor 5, sequence (P33032 whole entry): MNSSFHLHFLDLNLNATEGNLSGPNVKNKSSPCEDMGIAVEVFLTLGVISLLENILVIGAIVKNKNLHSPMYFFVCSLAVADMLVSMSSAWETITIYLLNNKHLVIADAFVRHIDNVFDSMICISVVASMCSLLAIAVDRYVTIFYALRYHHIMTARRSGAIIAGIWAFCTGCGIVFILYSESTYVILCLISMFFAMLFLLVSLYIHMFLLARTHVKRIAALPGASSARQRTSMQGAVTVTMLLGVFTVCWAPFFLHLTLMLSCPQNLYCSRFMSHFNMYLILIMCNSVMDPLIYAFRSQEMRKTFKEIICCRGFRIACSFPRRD

[5] = target: T1, Muscarinic acetylcholine receptor M4 (Homo sapiens, UniProt P08173); format: cell membranes, CHO-K1, Membrane; conditions: cho-k1; also: in other assays of this panel Not Active means under 50% inhibition at 10 µM
T1 sequence (P08173 whole entry): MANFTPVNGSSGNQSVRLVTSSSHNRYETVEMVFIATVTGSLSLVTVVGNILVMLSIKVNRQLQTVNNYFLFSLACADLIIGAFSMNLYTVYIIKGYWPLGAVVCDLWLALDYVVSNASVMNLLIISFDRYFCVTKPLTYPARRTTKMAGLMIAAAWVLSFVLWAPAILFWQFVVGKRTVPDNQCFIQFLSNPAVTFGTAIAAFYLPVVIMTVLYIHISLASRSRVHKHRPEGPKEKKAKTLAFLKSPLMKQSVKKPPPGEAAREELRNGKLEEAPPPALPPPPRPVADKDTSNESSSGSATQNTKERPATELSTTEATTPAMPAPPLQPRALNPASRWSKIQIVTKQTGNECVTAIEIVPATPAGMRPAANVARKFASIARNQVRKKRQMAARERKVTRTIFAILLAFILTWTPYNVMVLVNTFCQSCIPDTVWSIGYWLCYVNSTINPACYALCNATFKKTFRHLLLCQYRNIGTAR

[6] = target: T2, Muscarinic acetylcholine receptor M5 (Homo sapiens, UniProt P08912); format: cell membranes, CHO-K1, Membrane; conditions: cho-k1; also: in other assays of this panel Not Active means under 50% inhibition at 10 µM
T2 sequence (P08912 whole entry): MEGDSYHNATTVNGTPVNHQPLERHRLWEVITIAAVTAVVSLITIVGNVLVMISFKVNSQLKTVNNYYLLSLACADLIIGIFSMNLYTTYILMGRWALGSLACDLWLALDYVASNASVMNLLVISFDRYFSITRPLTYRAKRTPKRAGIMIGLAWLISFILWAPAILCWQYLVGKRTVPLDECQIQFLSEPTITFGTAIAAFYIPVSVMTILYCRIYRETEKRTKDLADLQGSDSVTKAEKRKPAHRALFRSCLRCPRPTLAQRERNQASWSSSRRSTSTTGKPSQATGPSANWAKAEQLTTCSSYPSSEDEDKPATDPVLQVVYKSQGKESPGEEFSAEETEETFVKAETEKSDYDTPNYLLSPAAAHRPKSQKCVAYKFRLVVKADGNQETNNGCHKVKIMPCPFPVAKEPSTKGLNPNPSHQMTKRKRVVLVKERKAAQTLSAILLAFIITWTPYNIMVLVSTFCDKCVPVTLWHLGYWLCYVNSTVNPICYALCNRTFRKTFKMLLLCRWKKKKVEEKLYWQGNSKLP

[7] = target: T3, Neuropeptide Y receptor type 2 (Homo sapiens, UniProt P49146); format: cell membranes, Membrane; conditions: kan-ts; also: in other assays of this panel Not Active means under 50% inhibition at 10 µM
T3 sequence (P49146 whole entry): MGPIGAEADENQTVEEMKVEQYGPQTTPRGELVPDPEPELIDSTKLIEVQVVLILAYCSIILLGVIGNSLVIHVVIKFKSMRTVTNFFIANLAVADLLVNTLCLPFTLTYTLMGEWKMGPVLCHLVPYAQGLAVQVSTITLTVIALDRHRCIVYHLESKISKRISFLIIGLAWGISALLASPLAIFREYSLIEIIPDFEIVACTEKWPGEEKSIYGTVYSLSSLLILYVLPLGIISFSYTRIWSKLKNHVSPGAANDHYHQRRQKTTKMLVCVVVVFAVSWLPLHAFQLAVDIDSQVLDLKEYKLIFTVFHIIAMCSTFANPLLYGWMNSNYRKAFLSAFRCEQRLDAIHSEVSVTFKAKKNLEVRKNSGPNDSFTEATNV

[8] = target: Platelet-activating factor receptor (Homo sapiens, UniProt P25105); assay: biochemical; format: tissue-based; conditions: platelet; also: in other assays of this panel Not Active means under 50% inhibition at 10 µM
Platelet-activating factor receptor, sequence (P25105 whole entry): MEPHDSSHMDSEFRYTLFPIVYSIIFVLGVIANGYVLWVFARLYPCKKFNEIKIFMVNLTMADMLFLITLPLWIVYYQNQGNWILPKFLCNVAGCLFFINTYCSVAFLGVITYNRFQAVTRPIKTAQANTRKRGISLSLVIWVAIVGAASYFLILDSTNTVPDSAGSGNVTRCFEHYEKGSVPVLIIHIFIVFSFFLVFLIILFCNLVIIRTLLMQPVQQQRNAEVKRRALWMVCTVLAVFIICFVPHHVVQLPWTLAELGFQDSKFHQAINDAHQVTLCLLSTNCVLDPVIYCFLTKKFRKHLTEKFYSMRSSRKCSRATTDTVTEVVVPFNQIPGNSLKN

Interstitial collagenase = target: T4, Interstitial collagenase (Homo sapiens, UniProt P03956); format: tissue-based, Rheumatoid synovial fibroblasts
T4 sequence (P03956 whole entry): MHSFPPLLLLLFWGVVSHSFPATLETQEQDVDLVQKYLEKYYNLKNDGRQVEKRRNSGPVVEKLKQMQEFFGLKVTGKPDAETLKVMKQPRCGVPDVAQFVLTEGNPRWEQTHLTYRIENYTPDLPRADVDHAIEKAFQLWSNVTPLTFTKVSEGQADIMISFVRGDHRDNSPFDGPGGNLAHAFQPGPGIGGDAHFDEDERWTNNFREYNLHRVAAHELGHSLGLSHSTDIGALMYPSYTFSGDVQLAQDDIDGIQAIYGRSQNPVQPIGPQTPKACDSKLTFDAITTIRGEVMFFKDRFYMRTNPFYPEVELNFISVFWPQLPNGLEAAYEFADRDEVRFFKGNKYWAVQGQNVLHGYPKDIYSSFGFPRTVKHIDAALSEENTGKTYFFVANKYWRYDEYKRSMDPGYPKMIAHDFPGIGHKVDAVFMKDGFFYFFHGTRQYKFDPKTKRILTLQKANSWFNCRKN

[9] = target: 5-hydroxytryptamine receptor 1B (Rattus norvegicus, UniProt P28564); format: cell membranes, Wistar, Cerebral cortex, Membrane; also: in other assays of this panel Not Active means under 50% inhibition at 10 µM
5-hydroxytryptamine receptor 1B, sequence (P28564 whole entry): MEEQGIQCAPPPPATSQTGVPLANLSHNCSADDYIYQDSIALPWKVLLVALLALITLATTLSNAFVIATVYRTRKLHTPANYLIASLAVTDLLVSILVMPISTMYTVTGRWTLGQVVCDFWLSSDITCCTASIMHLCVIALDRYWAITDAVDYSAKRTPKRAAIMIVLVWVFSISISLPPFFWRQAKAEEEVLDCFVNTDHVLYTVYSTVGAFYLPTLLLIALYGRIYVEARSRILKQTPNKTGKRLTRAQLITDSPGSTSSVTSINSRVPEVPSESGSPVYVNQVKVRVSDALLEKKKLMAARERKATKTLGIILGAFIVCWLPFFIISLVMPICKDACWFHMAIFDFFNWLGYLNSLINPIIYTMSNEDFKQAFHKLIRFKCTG

Cytochrome P450 2C19 = Cytochrome P450 2C19 (Homo sapiens, UniProt P33261); conditions: bti-tn-5b1-4; also: in other assays of this panel Not Active means under 50% inhibition at 10 µM
Cytochrome P450 2C19, sequence (P33261 whole entry): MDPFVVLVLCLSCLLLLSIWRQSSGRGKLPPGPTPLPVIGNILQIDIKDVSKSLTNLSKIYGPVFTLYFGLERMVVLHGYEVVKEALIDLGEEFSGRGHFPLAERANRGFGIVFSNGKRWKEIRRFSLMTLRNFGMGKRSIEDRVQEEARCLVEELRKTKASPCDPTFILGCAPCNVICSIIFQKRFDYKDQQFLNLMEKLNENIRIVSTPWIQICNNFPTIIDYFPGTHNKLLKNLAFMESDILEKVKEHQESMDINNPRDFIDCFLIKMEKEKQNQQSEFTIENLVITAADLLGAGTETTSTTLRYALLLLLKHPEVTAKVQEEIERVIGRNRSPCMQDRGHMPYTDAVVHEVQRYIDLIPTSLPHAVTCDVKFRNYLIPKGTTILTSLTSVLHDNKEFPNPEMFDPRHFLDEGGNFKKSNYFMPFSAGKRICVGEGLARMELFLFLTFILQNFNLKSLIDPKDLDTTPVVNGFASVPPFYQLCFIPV

NCC[C@H](O)C(=O)N[C@@H]1C[C@H](N)[C@@H](O[C@H]2O[C@H](CN)[C@@H](O)[C@H](O)[C@H]2O)[C@H](O)[C@H]1O[C@H]1O[C@H](CO)[C@@H](O)[C@H](N)[C@H]1O [AMIKACIN]
Not Active: IC50 [1] | Ki [1] | IC50 [2] | IC50 [3] | IC50 [4] | Ki [4] | IC50 (Melanocortin receptor 4) | IC50 (Melanocortin receptor 5) | IC50 [5] | IC50 [6] | IC50 [7] | IC50 [8] | IC50 (Interstitial collagenase) | IC50 [9] | IC50 (Cytochrome P450 2C19) | Ki (Cytochrome P450 2C19)

CC1(C)S[C@@H]2[C@H](NC(=O)[C@H](N)c3ccc(O)cc3)C(=O)N2[C@H]1C(=O)O [AMOXICILLIN]
Not Active: IC50 [1] | Ki [1] | IC50 [2] | IC50 [3] | IC50 [4] | Ki [4] | IC50 (Melanocortin receptor 4) | IC50 (Melanocortin receptor 5) | IC50 [5] | IC50 [6] | IC50 [7] | IC50 [8] | IC50 (Interstitial collagenase) | IC50 [9] | IC50 (Cytochrome P450 2C19) | Ki (Cytochrome P450 2C19)

CCOC(=O)OC(C)OC1=C(C(=O)Nc2ccccn2)N(C)S(=O)(=O)c2ccccc21 (centres undefined) [AMPIROXICAM]
Not Active: IC50 [1] | Ki [1] | IC50 [2] | IC50 [3] | IC50 [4] | Ki [4] | IC50 (Melanocortin receptor 4) | IC50 (Melanocortin receptor 5) | IC50 [5] | IC50 [6] | IC50 [7] | IC50 [8] | IC50 (Interstitial collagenase) | IC50 [9] | IC50 (Cytochrome P450 2C19) | Ki (Cytochrome P450 2C19)

N#C[C@H](O[C@@H]1O[C@H](CO[C@@H]2O[C@H](CO)[C@@H](O)[C@H](O)[C@H]2O)[C@@H](O)[C@H](O)[C@H]1O)c1ccccc1 [AMYGDALIN]
Not Active: IC50 [1] | Ki [1] | IC50 [2] | IC50 [3] | IC50 [4] | Ki [4] | IC50 (Melanocortin receptor 4) | IC50 (Melanocortin receptor 5) | IC50 [5] | IC50 [6] | IC50 [7] | IC50 [8] | Ki (Interstitial collagenase) | IC50 [9] | IC50 (Cytochrome P450 2C19) | Ki (Cytochrome P450 2C19)

N=C(N)NCCCCNC(=N)N.O=S(=O)(O)O [ARCAINE SULFATE]
Not Active: IC50 [1] | Ki [1] | IC50 [2] | IC50 [3] | IC50 [4] | Ki [4] | IC50 (Melanocortin receptor 4) | IC50 (Melanocortin receptor 5) | IC50 [5] | IC50 [6] | IC50 [7] | IC50 [8] | IC50 (Interstitial collagenase) | IC50 [9] | IC50 (Cytochrome P450 2C19) | Ki (Cytochrome P450 2C19)

C=C1[C@@H]2CCC3[C@@](CC[C@@H]4[C@H](C(=O)O)C[C@@H](O[C@@H]5O[C@H](CO)[C@@H](OS(=O)(=O)[O-])[C@H](OS(=O)(=O)[O-])[C@H]5OC(=O)CC(C)C)C[C@@]34C)(C2)[C@@H]1O.[K+].[K+] (some centres undefined) [ATRACTYLOSIDE]
Not Active: IC50 [1] | Ki [1] | IC50 [2] | IC50 [3] | IC50 [4] | Ki [4] | IC50 (Melanocortin receptor 4) | IC50 (Melanocortin receptor 5) | IC50 [5] | IC50 [6] | IC50 [7] | IC50 [8] | IC50 (Interstitial collagenase) | IC50 [9] | IC50 (Cytochrome P450 2C19) | Ki (Cytochrome P450 2C19)

CC1(C)S[C@@H]2[C@H](NC(=O)[C@H](NC(=O)N3CCNC3=O)c3ccccc3)C(=O)N2[C@H]1C(=O)O [AZLOCILLIN]
Not Active: IC50 [1] | Ki [1] | IC50 [2] | IC50 [3] | IC50 [4] | Ki [4] | IC50 (Melanocortin receptor 4) | IC50 (Melanocortin receptor 5) | IC50 [5] | IC50 [6] | IC50 [7] | IC50 [8] | IC50 (Interstitial collagenase) | IC50 [9] | IC50 (Cytochrome P450 2C19) | Ki (Cytochrome P450 2C19)

CCOC(=O)c1ccc(N)cc1 [BENZOCAINE]
Not Active: IC50 [1] | Ki [1] | IC50 [2] | IC50 [3] | IC50 [4] | Ki [4] | IC50 (Melanocortin receptor 4) | IC50 (Melanocortin receptor 5) | IC50 [5] | IC50 [6] | IC50 [7] | IC50 [8] | IC50 (Interstitial collagenase) | IC50 [9] | IC50 (Cytochrome P450 2C19) | Ki (Cytochrome P450 2C19)

OCc1ccccc1 [BENZYL ALCOHOL]
Not Active: IC50 [1] | Ki [1] | IC50 [2] | IC50 [3] | IC50 [4] | Ki [4] | IC50 (Melanocortin receptor 4) | IC50 (Melanocortin receptor 5) | IC50 [5] | IC50 [6] | IC50 [7] | IC50 [8] | IC50 (Interstitial collagenase) | IC50 [9] | IC50 (Cytochrome P450 2C19) | Ki (Cytochrome P450 2C19)
